In patent publication US10385050B2, “Indolin-2-one and 1,3-dihydro-pyrrolo[3,2-c]pyridin-2-one derivatives” (Hoffmann-La Roche Inc., priority 2014, dated 2019):

Tested on: L-687,414-induced hyperlocomotion
Experiment: Reversal of L-687,414-induced hyperlocomotion (Digiscan locomotor activity)
Type: in vivo, mouse
Conditions: for inhibition in vivo at 30 mg/kg: Mus musculus, 0.5 h; for inhibition in vivo at 30 mg/kg / Inhibition, ip: dose ip 30 mg/kg at the same time as s.c. 50 mg/kg L-687,414, horizontal activity over 30 min; for ID50 po: dose producing 50% inhibition of L-687,414-induced hyperlocomotion, p.o. 15 min before s.c. 50 mg/kg L-687,414, doses 1-3-10 (Expl. 2: 3-10-30) mg/kg
Text: The authors described that hyperlocomotion induced by L-687,414 was inhibited by a series of known antipsychotic drugs. […] These findings predict antipsychotic activity for the present compounds, making them useful for the treatment of positive (psychosis) and negative symptoms of schizophrenia, substance abuse, alcohol and drug addiction, obsessive-compulsive disorders, cognitive impairment, bipolar disorders, mood disorders, major depression, resistant depression, anxiety disorders, Alzheimer's disease, autism, Parkinson's disease, chronic pain, borderline personality disorder, sleep disturbances, chronic fatigue syndrome, stiffness, antiinflammatory effects in arthritis and balance problems.
The described compounds of formula I reduce L-687,414-induced hyperlocomotion. This was assessed by using a computerized Digiscan 16 Animal Activity Monitoring System (Omnitech Electronics, Columbus, Ohio) to quantify locomotor activity. Animals were kept under a 12 h light/dark cycle and experiments were performed during the light period. Each activity monitoring chamber consisted of a Plexiglas box (41×41×28 cm; W×L×H) with sawdust bedding on the floor surrounded by invisible horizontal and vertical infrared sensor beams. The test boxes were divided by a Plexiglas cross providing each mouse with 20×20 cm of moving space. Cages were connected to a Digiscan Analyzer linked to a computer that constantly collected the beam status information. Records of photocell beam interruptions for individual animals were taken every 5 min over the duration of the experimental session and the sum of the first 6 periods was used as the final parameter. Compounds were administered either p.o. 15 min before a s.c. injection of 50 mg/kg of L-687,414, or i.p. at the same time as a s.c. injection of 50 mg/kg of L-687,414. Mice were then transferred from their home cage to the recording chambers for a 15-min habituation phase allowing free exploration of the new environment. Horizontal activity was then recorded for a 30-min time period. The % inhibition of L-687,414-induced hyperlocomotion was calculated according to the equation: ((Veh+L-687,414 horizontal activity−drug+L-687,414 horizontal activity)/Veh+L−687,414 horizontal activity)×100
ID50 values, defined as doses of each compound producing 50% inhibition of L-687,414-induced hyperlocomotion, were calculated by linear regression analysis of a dose-response data using an Excel-based computer-fitting program.
As data was not presupposed to be normally distributed, groups treated with test compounds were statistically compared with the control (vehicle-treated) group using one-tailed Mann Whitney U tests. In statistics, the Mann-Whitney U test (also called the Mann-Whitney-Wilcoxon (MWW) or Wilcoxon rank-sum test) is a non-parametric statistical hypothesis test for assessing whether one of two samples of independent observations tends to have larger values than the other. It is one of the most well-known non-parametric significance tests. […] P values given in table 1 are one-tailed since only decreases in locomotion were expected and tested for (Mann, H. B., Whitney, D. R. (1947), “On a Test of Whether one of Two Random Variables is Stochastically Larger than the Other”, Annals of Mathematical Statistics, 18 (1), 50-60).

Row | Compound | inhibition in vivo at 30 mg/kg [%] | further results
1 | CC1(C)C(=O)N(C2CC2)c2cc(-n3cc(-c4cccnc4)cn3)ccc21 [Example 52, 1-Cyclopropyl-3,3-dimethyl-6-(4-(pyridin-3-yl)-1H-pyrazol-1-yl)indolin-2-one] | 82.1 | –
2 | Cc1ccc(-c2ncc(-c3ccc4c(c3)N(C)C(=O)C4(C)C)cn2)cn1 [Example 101, 1,3,3-Trimethyl-6-(2-(6-methylpyridin-3-yl)pyrimidin-5-yl)indolin-2-one] | 78.4 | –
3 | Cc1cnccc1-n1cnc(-c2ccc3c(c2)N(C)C(=O)C3(C)C)c1 [Example 88, 1,3,3-Trimethyl-6-(1-(3-methylpyridin-4-yl)-1H-imidazol-4-yl)indolin-2-one] | 93.1 | –
4 | Cc1cccc(-n2cnc(-c3ccc4c(c3)NC(=O)C4(C)C)c2)n1 [Example 123, 3,3-Dimethyl-6-(1-(6-methylpyridin-2-yl)-1H-imidazol-4-yl)indolin-2-one] | 30.6 | –
5 | Cc1ccc(N2C(=O)C(C)(C)c3ccc(-c4cn(-c5ccnc(C)c5)cn4)cc32)cn1 [Example 104, 3,3-Dimethyl-1-(6-methyl-3-pyridyl)-6-[1-(2-methyl-4-pyridyl)imidazol-4-yl]indolin-2-one] | 64.8 | –
6 | CC1(C)C(=O)N(CCO)c2cc(-c3cn(-c4ccncc4F)cn3)ccc21 [Example 130, 6-[1-(3-Fluoro-4-pyridyl)imidazol-4-yl]-1-(2-hydroxyethyl)-3,3-dimethyl-indolin-2-one] | 74.5 | –
7 | CN1C(=O)C(C)(C)c2ccc(-n3cnc(-c4ccncc4)c3)cc21 [Example 20, 1,3,3-Trimethyl-6-(4-(pyridin-4-yl)-1H-imidazol-1-yl)indolin-2-one] | 64.4 | –
8 | Cc1cnccc1-n1cnc(-c2ccc3c(c2)N(c2ccn(C)n2)C(=O)C3(C)C)c1 [Example 115, 3,3-Dimethyl-1-(1-methylpyrazol-3-yl)-6-[1-(3-methyl-4-pyridyl)imidazol-4-yl]indolin-2-one] | 74.1 | –
9 | COc1cnccc1-c1ncc(-c2ccc3c(c2)NC(=O)C3(C)C)o1 [Example 63, 6-(2-(3-Methoxypyridin-4-yl)oxazol-5-yl)-3,3-dimethylindolin-2-one] | 75 | –
10 | Cc1ccc(-c2ncc(-c3ccc4c(c3)N(C3CC3)C(=O)C4(C)C)o2)cn1 [Example 33, 1-Cyclopropyl-3,3-dimethyl-6-(2-(6-methylpyridin-3-yl)oxazol-5-yl)indolin-2-one] | – | ID50 po: 3.36 mg/kg
11 | CN1C(=O)C(C)(C)c2ccc(-c3cnc(-c4ccncc4)[nH]3)cc21 [Example 3, 1,3,3-Trimethyl-6-(2-(pyridin-4-yl)-1H-imidazol-5-yl)indolin-2-one] | 58.9 | –
12 | Cc1cc(-c2cnn(-c3ccc4c(c3)N(C3CC3)C(=O)C4(C)C)c2)ccn1 [Example 55, 1-Cyclopropyl-3,3-dimethyl-6-(4-(2-methylpyridin-4-yl)-1H-pyrazol-1-yl)indolin-2-one] | 42.7 | –
13 | CN1C(=O)C(C)(C)c2ccc(-c3cnn(-c4cccnc4)c3)cc21 [Example 50, 1,3,3-Trimethyl-6-(1-(pyridin-3-yl)-1H-pyrazol-4-yl)indolin-2-one] | 44 | –
14 | Cc1cnc(-n2cnc(-c3ccc4c(c3)N(C)C(=O)C4(C)C)c2)nc1 [Example 119, 1,3,3-Trimethyl-6-(1-(5-methylpyrimidin-2-yl)-1H-imidazol-4-yl)indolin-2-one] | 48.1 | –
15 | Cc1cc(-n2cnc(-c3ccc4c(c3)N(C3CC3)C(=O)C4(C)C)c2)ccn1 [Example 74, 1-Cyclopropyl-3,3-dimethyl-6-(1-(2-methylpyridin-4-yl)-1H-imidazol-4-yl)indolin-2-one] | 71.4 | –
16 | Cc1ccc(-c2cc(-c3ccc4c(c3)N(C)C(=O)C4(C)C)n[nH]2)cn1 [Example 80, 1,3,3-Trimethyl-6-(5-(6-methylpyridin-3-yl)-1H-pyrazol-3-yl)indolin-2-one] | 62.6 | –
17 | CN1C(=O)C(C)(C)c2ccc(-c3cnc(-c4cccnc4)o3)cc21 [Example 7, 1,3,3-Trimethyl-6-(2-(pyridin-3-yl)oxazol-5-yl)indolin-2-one] | 83.9 | –
18 | 1,3,3-Trimethyl-6-(4-(pyridin-3-yl)-1H-imidazol-1-yl)indolin-2-one [Example 29] | – | Inhibition, ip: 80.3%
19 | CN1C(=O)C(C)(C)c2ccc(-c3cn(-c4ccncc4F)cn3)cc21 [Example 73, 6-(1-(3-Fluoropyridin-4-yl)-1H-imidazol-4-yl)-1,3,3-trimethylindolin-2-one] | – | ID50 po: 2.97 mg/kg
20 | CC1(C)C(=O)N(C2CC2)c2cc(-c3cn(-c4ccncc4F)cn3)ccc21 [Example 76, 1-Cyclopropyl-6-(1-(3-fluoropyridin-4-yl)-1H-imidazol-4-yl)-3,3-dimethylindolin-2-one] | – | ID50 po: <1 mg/kg
21 | Cc1cc(-c2cnn(-c3ccc4c(c3)N(C)C(=O)C4(C)C)c2)ccn1 [Example 54, 1,3,3-Trimethyl-6-(4-(2-methylpyridin-4-yl)-1H-pyrazol-1-yl)indolin-2-one] | 41.6 | –
22 | CC1(C)C(=O)N(C2CC2)c2cc(-c3cnc(-c4cccnc4)o3)ccc21 [Example 8, 1-Cyclopropyl-3,3-dimethyl-6-(2-(pyridin-3-yl)oxazol-5-yl)indolin-2-one] | 80.5 | –
23 | CC1(C)C(=O)N(C2COC2)c2cc(-n3cc(-c4cccnc4)cn3)ccc21 [Example 43, 3,3-Dimethyl-1-(oxetan-3-yl)-6-(4-(pyridin-3-yl)-1H-pyrazol-1-yl)indolin-2-one] | 47.3 | –
24 | Cc1cc(-n2cnc(-c3ccc4c(c3)N(c3ccn(C)n3)C(=O)C4(C)C)c2)ccn1 [Example 112, 3,3-Dimethyl-1-(1-methylpyrazol-3-yl)-6-[1-(2-methyl-4-pyridyl)imidazol-4-yl]indolin-2-one] | 52.5 | –
25 | CN1C(=O)C(C)(C)c2ccc(-n3cc(-c4ccncc4)nn3)cc21 [Example 57, 1,3,3-Trimethyl-6-(4-(pyridin-4-yl)-1H-1,2,3-triazol-1-yl)indolin-2-one] | 89.2 | –
26 | Cc1cc(-n2cnc(-c3ccc4c(c3)N(c3cn(C)cn3)C(=O)C4(C)C)c2)ccn1 [Example 111, 3,3-Dimethyl-1-(1-methylimidazol-4-yl)-6-[1-(2-methyl-4-pyridyl)imidazol-4-yl]indolin-2-one] | 55.1 | –
27 | 3,3-Dimethyl-6-[1-(2-methyl-4-pyridyl)imidazol-4-yl]-1-(2-methylpyrimidin-5-yl)indolin-2-one [Example 113] | – | Inhibition, ip: 69.9%
28 | Cc1ccc(N2C(=O)C(C)(C)c3ccc(-c4cn(-c5ccncc5C)cn4)cc32)cn1 [Example 105, 3,3-Dimethyl-1-(6-methyl-3-pyridyl)-6-[1-(3-methyl-4-pyridyl)imidazol-4-yl]indolin-2-one] | 40.6 | –
29 | CC1(C)C(=O)Nc2cc(-n3cc(-c4cccnc4)cn3)ccc21 [Example 51, 3,3-Dimethyl-6-(4-(pyridin-3-yl)-1H-pyrazol-1-yl)indolin-2-one] | 61 | –
30 | CN1C(=O)C(C)(C)c2ccc(-n3cc(-c4cccnc4)cn3)cc21 [Example 41, 1,3,3-Trimethyl-6-(4-(pyridin-3-yl)-1H-pyrazol-1-yl)indolin-2-one] | 50.3 | –
